In patent publication US20150080380A1, “Therapeutic Uses” (GLAXOSMITHKLINE INTELLECTUAL PROPERTY DEVELOPMENT LIMITED, priority 2012, published 2015):
Structures can show the parent of a compound that is named as a salt.

Test system: OPC differentiation
Experiment: Oligodendrocyte precursor cell (OPC) differentiation assay (MBP immunocytochemistry)
Type: cell-based, rat
Conditions: for EC50: Rattus norvegicus, Oligodendrocyte precursor cell, 96 h, 0.3 nM-10 uM, 4 days, FIG. 1, read-out: EC50, promotion of OPC differentiation (MBP+ population); for effect on OPC differentiation: all concentrations (0.3 nM-10 uM), FIG. 1b
Method: The effects of small-molecule inverse agonists and neutral antagonists of histamine receptor 3 (H3R) on OPC differentiation were determined using the following assay.
The enriched OPC were obtained from dissecting 2-d-old rat pups forebrain. The pups were anesthetized and decapitated. Then the skull was cut with microdissecting scissors and the cortex was taken out with Dumont forceps. The meninges were removed with fine tips. After repeated trituration of the cortex through cell strainer, cells were re-suspended with the culture media consisted of DMEM supplemented with 20% Fetal bovine serum (Invitrogen, Carlsbad, Calif.), glutamine (4 mM, (Invitrogen), and plated onto poly-D-lysine (PDL, […] for 1 h, Sigma, St. Louis, Mo.)-coated T75 flasks. The resulting cultures were fed with fresh culture media twice per week and almost all the neurons will die due to the high concentration of serum in one week. Then the mixed glial cells were subjected to a series shake-off procedure to obtain pure OPCs two weeks later. Specifically, the mixed glial cells were shaken initially for 1 hour at 100 rpm to remove microglia and shaken for 20-22 hours at 37° C. at 200 rpm to enrich OPCs. OPCs were collected by centrifugation at 1200 rpm for 5 min, re-suspended in basal chemically defined medium (BDM). BDM consisted of DMEM supplemented with N2 medium (100×, Invitrogen), glutamine (4 mM, Invitrogen), BSA (0.1 mg/ml, Sigma), hydrocortisone (20 nM, Sigma), selenium (30 nM, Sigma) and biotin (10 nM, Sigma). OPCs were plated on poly-ornithine (PO, 50 μg/ml for 1 hr, Sigma)-coated culture dishes and maintained in BDM supplemented with bFGF (10 ng/ml, Invitrogen) and PDGF (10 ng/ml, PeproTech, Rocky Hill, N.J.) before experimental manipulation. OPCs were 95% pure judged by A2B5+ staining.
To initiate OPC differentiation, OPCs were firstly treated with 0.05% Trypsin/EDTA, and seeded into PO-coated 384-mini well plate at a density of 2,000 to 5,000 cells/well. Each test compound was dissolved in DMSO at the concentration of 10 mM for the assay. Compounds at different concentrations (full dose curve, 0.3 nM-10 uM) were added into the OPC culture in duplicates with Echo machine (Thermo, Waltham, Mass.). OPCs were cultured in BDM supplemented with N-acetyl-L-cystenine (30 μM, Sigma) to differentiate into mature oligodendrocytes for 4 days. BDM comprise DMEM (Invitrogen), N2 (100×, Invitrogen), L-Glu (50×, Invitrogen), Sodium Pyruvate (100×, Invitrogen), BSA (0.1%, Sigma), Biotin (10 nM, Sigma), hydrocortisone (10 nM, Sigma). The resulting cultures were fixed with 4% polyformaldehyde (Sigma) and samples were blocked with the blocking buffer (Donkey Serum 3%, Sigma; Triton X-100 0.04%, Sigma). Then fixed cells were incubated in primary antibodies (anti-myelin basic protein, MBP antibody, 600× dilution in blocking buffer) overnight at 4° C., washed thoroughly with PBS and then incubated with Alexa 488-labeled secondary antibody (Molecular Probes, Invitrogen) for 2 h at R.T; then washed thoroughly with PBS and stained with Dapi (1 ug/ml, Sigma),
The full-plate immunocytochemistry staining was read by an automatic image-based analysis system-Cellomics (Thermo) and the raw data for each well was acquired as percentage of MBP+ population as follows: Pictures of eight fields per well were captured and analyzed quantitatively; the well data is the average of 8 fields. The intensity of anti-MBP staining in the cytosol was used as the criteria of positive objects. The threshold of positive objects was set based on the average intensity of the positive control well, for which triiodothyronine (15 nM) was used. Then the data was analyzed and presented as fold change of the number of the vehicle control well. Graphs were generated by softwares: Microsoft Excel and IDBS XL fits. The curve fitting was performed with software XL fits to derive EC50 of the positive compounds.
All data except FIG. 1 are given as mean±standard error of the mean (SEM). […]

SMILES | EC50 | effect on OPC differentiation
N=C(NCc1ccc(Cl)cc1)SCCCc1c[nH]cn1 [Example compound 8, 3-(1H-imidazol-4-yl)propyl 4-chlorobenzylcarbamimidothioate dihydrobromide, reference compound] | 48 nM | –
c1nc(CCCC2CCNCC2)c[nH]1 [Example compound 5, 4-[3-(1H-Imidazol-4-yl)propyl]piperidine dihydrobromide, reference compound] | – | didn't show any effect
c1ccc(COCCCc2cnc[nH]2)cc1 [Example compound 4, 4-[3-(Phenylmethoxy)propyl]-1H-imidazole oxalate, reference compound] | – | didn't show any effect

Continued, in another order:

EC50 | SMILES | effect on OPC differentiation
250 nM | C[C@@H]1CCCN1CCCOc1ccc(-c2ccc(=O)[nH]n2)cc1 [Example compound 7, (R)-6-(4-(3-(2-methylpyrrolidin-1-yl)propoxy)phenyl)pyridazin-3(2H)-one, reference compound] | –
31 nM | CC(C)N1CCC(OC2CCN(c3ccc(C#N)cc3)CC2)CC1 [Example compound 3, 4-(4-((1-isopropylpiperidin-4-yl)oxy)piperidin-1-yl)benzonitrile hydrochloride] | –
14 nM | Clc1ccc(CCCOCCCN2CCCCC2)cc1 [Example compound 6, 1-(3-(3-(4-chlorophenyl)propoxy)propyl)piperidine, reference compound] | –
